Assay results: publication PMC2920546, “Preclinical Pharmacology of BA-TPQ, a Novel Synthetic Iminoquinone Anticancer Agent” (Marine Drugs, 2010)

Experiments:
[1] = Pharmacokinetics, excretion and strain comparison stated for CD-1 and nude mice together; assay type: in vivo
Experimental: (§1) Female ICR/CD-1 (18–20 g) mice were purchased from Harlan Laboratories (Indianapolis, IN), and female nude mice (nu/nu; 4–6 weeks) were purchased from Frederick Cancer Research and Development Center (Frederick, MD). All animal use and care procedures were approved by the Institutional Animal Care and Use Committee (IACUC) of the University of Alabama at Birmingham. All animals were fed with commercial diet and water ad libitum and were on an alternating 12 h light/dark cycle.
(§2) CD-1 and nude mice were randomly divided into groups of three, and were dosed either intravenously (5 mg/kg) or intraperitoneally (10 mg/kg) with BA-TPQ in PEG 400:ethanol:0.9% saline (57.1%:14.3%:28.6%). Before dosing, and at 5, 15, 30, 60 min, and 2, 4, 8, and 24 h after dosing, groups of animals (three/time point) were anesthetized, and blood was collected from the retro-orbital sinus into heparinized tubes. Plasma was obtained by centrifuging the blood samples at 14,000 rpm for 15 min. BA-TPQ was then extracted from plasma and stored at −80 °C. The brain, heart, kidneys, liver, lungs, and spleen were also collected at the same time points during necropsy, blotted on Whatman No. 1 filter paper, trimmed of extraneous fat and connective tissue, weighed, and homogenized in phosphate-buffered saline. The resulting homogenates were stored at −80 °C until further processing and analysis. Urine and feces were collected for 24 hr from mice housed in metabolic cages. After collection, the cages were also washed twice with 200 μL PBS, and the washes were collected and analyzed separately. The total urine was determined as the amount from the urine plus washes 1 and 2. Feces were homogenized in PBS, then extracted using the same procedure used for tissues.
(§3) Six hundred microliters of acetonitrile was added to 200 μL of plasma, urine, cage washes (first and second), or tissue/feces homogenate in an Eppendorf tube to precipitate proteins. After centrifugation at 14,000 rpm for 10 min, the supernatant was transferred to a glass tube and evaporated to dryness using a TurboVap® LV Concentration Workstation (Caliper Lifesciences, Hopkinton, MA). The residue was reconstituted with 500 μL ethyl acetate, sonicated for 10 min, and vortexed for 10 sec. Samples were then centrifuged again and the resulting supernatant was transferred to a new glass tube and evaporated to dryness. Finally, samples were reconstituted in 100 μL mobile phase, and 50 μL was injected into the HPLC system for analysis.
(§4) The averages of the BA-TPQ concentration in plasma and tissues following intravenous and intraperitoneal administration to three animals per time point were used for pharmacokinetic analyses using a two-compartmental model and a non-compartment model, respectively. The following pharmacokinetic parameters were estimated using Phoenix WinNonlin 6.0 (Mountain View, CA): area under the concentration-time curve (AUC, h·μg/mL), half-life (T½, h), maximum concentration (Cmax, μg/mL), time of the maximum concentration (Tmax, h), and clearance (CL, mL/h/kg), as applicable. Bioavailability (X) was calculated as X= [AUCip × doseiv]/[AUCiv × doseip].

[2] = Pharmacokinetics and tissue distribution in nude mice; assay type: in vivo
Experimental: as §1, §2, §3, §4

[3] = Binding to mouse plasma proteins (micro-ultrafiltration); assay type: in vitro ADME; conditions: non-Swiss albino, pooled mouse plasma
Experimental: The extent of binding to mouse plasma proteins by BA-TPQ was determined using a micro-ultrafiltration system as previously described. BA-TPQ was dissolved in methanol and added to pooled mouse plasma to yield final concentrations of 0.5 μM and 5.0 μM. Control solutions were prepared in methanol to account for non-specific binding of BA-TPQ to the filter membranes. Duplicate preparations of each concentration were incubated at 37 °C for 1 h, before being placed into the sample reservoirs of Amicon Centrifree® ultrafiltration tubes (30 kDa exclusion; Millipore Corporation, Bedford, MA, USA). The filter systems were then centrifuged at 3000 g (37 °C) for 30 min or until no solution remained in the reservoir. Aliquots were taken from each filtrate and analyzed using the validated HPLC method. The concentrations of the unfiltered plasma and control preparations were also determined using the same protocol and expressed as the “total drug” (T) present, while the amounts of BA-TPQ present in the filtrates were designated as “free drug” (F). The percentage of BA-TPQ bound to plasma proteins was calculated as follows:
(1) Percent Bound=[(T-F)/T]×100

[4] = IV 5 mg/kg, both strains, 24 hr collection
[5] = female, nude (nu/nu), mouse, brain, IP 10 mg/kg
[6] = female, nude (nu/nu), mouse, brain, IV 5 mg/kg
[7] = female, nude (nu/nu), mouse, heart, IP 10 mg/kg
[8] = female, nude (nu/nu), mouse, heart, IV 5 mg/kg
[9] = female, nude (nu/nu), mouse, kidneys, IP 10 mg/kg
[10] = female, nude (nu/nu), mouse, kidneys, IV 5 mg/kg
[11] = female, nude (nu/nu), mouse, liver, IP 10 mg/kg
[12] = female, nude (nu/nu), mouse, liver, IV 5 mg/kg
[13] = female, nude (nu/nu), mouse, lungs, IP 10 mg/kg
[14] = female, nude (nu/nu), mouse, lungs, IV 5 mg/kg
[15] = female, nude (nu/nu), mouse, plasma, IP 10 mg/kg
[16] = female, nude (nu/nu), mouse, plasma, IV 5 mg/kg
[17] = female, nude (nu/nu), mouse, spleen, IP 10 mg/kg
[18] = female, nude (nu/nu), mouse, spleen, IV 5 mg/kg

O=C1C(NCc2ccccc2)=CC2=NCCc3c[nH]c1c32 [BA-TPQ, 7-(benzylamino)-1,3,4,8-tetrahydropyrrolo[4,3,2-de]quinolin-8(1H)-one]
Amount excreted in the feces ([1]; IP 10 mg/kg): less than 1% | Amount excreted in the urine ([1]; IP 10 mg/kg, first 24 h after dosing): less than 0.02 % of the administered dose | AUC in the brain, nude mice versus CD-1 mice ([1]; IP injection): ~ 5 fold | Accumulation in the liver, nude mice versus CD-1 mice ([1]; IP injection): ~ 18 fold | Detectability in the lungs at 24 h ([1]; IV 5 mg/kg, both CD-1 and nude mice): still detectable | Amount excreted in feces [1, 4]: less than 1 % of the administered dose | Amount excreted in the urine [1, 4]: less than 0.1 % of the administered dose | Detectability in plasma ([1]; IV 5 mg/kg, either strain of mice): no longer detectable in plasma after 2 h | Exposure of the heart (AUC), nude mice versus CD-1 mice ([1]; IV injection): approximately 6 fold | bioavailability ([1]; female, CD-1 and nude (nu/nu), mouse, plasma, ip, 10 mg/kg, mice, IP injection, read-out: Intraperitoneal bioavailability (authors' overall estimate)): ~70% | Blood-brain barrier passage (AUC in brain comparable to plasma) ([1]; mice): can cross the blood-brain barrier | Intraperitoneal bioavailability (authors' overall estimate) ([1]; mice, IP injection): > 70% | Time of greatest plasma concentration ([2]; IP 10 mg/kg): 1 h | Cl ([2]; brain, IP 10 mg/kg): 650 mL/min/kg | AUC [2, 5]: 770 ng·h/mL | Cmax [2, 5]: 90 ng/mL | Tmax [2, 5]: 60 min | half-life [2, 5]: 244 min | AUC [2, 6]: 340 ng·h/mL | Cmax [2, 6]: 620 ng/mL | clearance [2, 6]: 1730 mL/min/kg | half-life [2, 6]: 22.8 min | AUC [2, 7]: 7630 ng·h/mL | Cmax [2, 7]: 6380 ng/mL | Tmax [2, 7]: 15 min | half-life [2, 7]: 30 min | AUC [2, 8]: 6370 ng·h/mL | Cmax [2, 8]: 48800 ng/mL | clearance [2, 8]: 83.3 mL/min/kg | half-life [2, 8]: 5.4 min | AUC [2, 9]: 12600 ng·h/mL | Cmax [2, 9]: 10800 ng/mL | Tmax [2, 9]: 30 min | half-life [2, 9]: 29.4 min | AUC [2, 10]: 5480 ng·h/mL | Cmax [2, 10]: 20800 ng/mL | clearance [2, 10]: 100 mL/min/kg | half-life [2, 10]: 10.8 min | AUC [2, 11]: 2760 ng·h/mL | Cmax [2, 11]: 4560 ng/mL | Tmax [2, 11]: 4.8 min | half-life [2, 11]: 31.8 min | AUC [2, 12]: 710 ng·h/mL | Cmax [2, 12]: 2710 ng/mL | clearance [2, 12]: 817 mL/min/kg | half-life [2, 12]: 10.8 min | AUC [2, 13]: 13200 ng·h/mL | Cmax [2, 13]: 14800 ng/mL | Tmax [2, 13]: 4.8 min | half-life [2, 13]: 35.4 min | AUC [2, 14]: 9180 ng·h/mL | Cmax [2, 14]: 18400 ng/mL | clearance [2, 14]: 66.7 mL/min/kg | half-life [2, 14]: 21 min | AUC [2, 15]: 150 ng·h/mL | Cmax [2, 15]: 220 ng/mL | Tmax [2, 15]: 15 min | half-life [2, 15]: 70.2 min | bioavailability ([2]; female, nude (nu/nu), mouse, plasma, IP 10 mg/kg vs IV 5 mg/kg, read-out: Intraperitoneal bioavailability): 100% | AUC [2, 16]: 40 ng·h/mL | Cmax [2, 16]: 150 ng/mL | half-life [2, 16]: 10.2 min | AUC [2, 17]: 18300 ng·h/mL | Cmax [2, 17]: 31200 ng/mL | Tmax [2, 17]: 15 min | half-life [2, 17]: 99 min | AUC [2, 18]: 4980 ng·h/mL | Cmax [2, 18]: 11000 ng/mL | clearance [2, 18]: 117 mL/min/kg | half-life [2, 18]: 18.6 min | Cl ([2]; heart, IP 10 mg/kg): 83 mL/min/kg | Cl ([2]; kidneys, IP 10 mg/kg): 50 mL/min/kg | Cl ([2]; liver, IP 10 mg/kg): 217 mL/min/kg | Cl ([2]; lungs, IP 10 mg/kg): 50 mL/min/kg | Cl ([2]; plasma, IP 10 mg/kg): 3920 mL/min/kg | Cl ([2]; spleen, IP 10 mg/kg): 33 mL/min/kg | fraction unbound at 1 h ([3]; mouse, read-out: Bound to plasma proteins (overall) (converted)): ~0.3 | fraction unbound at 1 h, 0.5 μM ([3]; mouse plasma, 0.5 μM, read-out: Bound to plasma proteins (converted)): 0.37 | fraction unbound at 1 h, 5 μM ([3]; mouse plasma, 5.0 μM, read-out: Bound to plasma proteins (converted)): 0.26
